Experimental data taken from US12673961B2 (Agios Pharmaceuticals, Inc., priority 2022, dated 2026).

Molecular target: T1, human PAH with the R408W mutation (Homo sapiens, UniProt P00439, R408W)
T1 construct: expressed in transfected cells
T1 sequence (P00439 1-452 R408W): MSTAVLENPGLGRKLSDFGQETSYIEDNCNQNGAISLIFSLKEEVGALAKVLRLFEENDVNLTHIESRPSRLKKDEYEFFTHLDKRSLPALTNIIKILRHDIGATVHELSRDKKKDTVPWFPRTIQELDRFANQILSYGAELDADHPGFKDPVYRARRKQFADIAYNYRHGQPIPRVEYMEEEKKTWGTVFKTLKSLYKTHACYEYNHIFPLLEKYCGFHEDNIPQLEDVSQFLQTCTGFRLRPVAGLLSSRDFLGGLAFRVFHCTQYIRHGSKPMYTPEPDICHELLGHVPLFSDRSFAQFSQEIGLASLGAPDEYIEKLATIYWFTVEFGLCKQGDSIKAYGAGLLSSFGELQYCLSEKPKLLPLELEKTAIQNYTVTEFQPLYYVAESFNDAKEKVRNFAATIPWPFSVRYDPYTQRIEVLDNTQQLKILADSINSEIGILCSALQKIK
Experiment: Cell Based Phenylalanine Flux Assay;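 note: Ten-point dose curve from 2-fold serial dilutions, run in duplicate at 0.5% DMSO final, tracer step used 20 µM sepiapterin and 800 µM labeled phenylalanine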
Settings: A375 cells expressing human R408W PAH; 24 hrs with compound, then sepiapterin and 13C9,15N-Phenylalanine for 4 hours; 13C-Tyrosine by LC-MS; average where tested multiple times; read-out: AC50

| Compound | AC50 [µM] |
| --- | --- |
| CC(C)(F)c1ncc(C(=O)N2CCc3[nH]cnc3[C@H]2c2cc3c(F)cccn3n2)o1 [Example 2064, (S)-(2-(2-fluoropropan-2-yl)oxazol-5-yl)(4-(4-fluoropyrazolo[1,5-a]pyridin-2-yl)-1,4,6,7-tetrahydro-5H-imidazo[4,5-c]pyridin-5-yl)methanone] | < 0.5 |
| Cc1c(-c2ncc(C(=O)N3CCc4[nH]cnc4[C@@H]3c3cc4c(C(F)F)cccn4n3)o2)cnn1C [Example 2069, (R)-(4-(4-(difluoromethyl)pyrazolo[1,5-a]pyridin-2-yl)-1,4,6,7-tetrahydro-5H-imidazo [4,5-c]pyridin-5-yl)(2-(1,5-dimethyl-1H-pyrazol-4-yl)oxazol-5-yl)methanone] | > 5 |
| Cc1cccc2cc([C@H]3c4nc[nH]c4CCN3C(=O)c3ocnc3C3CC3)nn12 [Example 2071, (R)-(4-cyclopropyloxazol-5-yl)(4-(7-methylpyrazolo[1,5-a]pyridin-2-yl)-1,4,6,7-tetrahydro-5H-imidazo[4,5-c]pyridin-5-yl)methanone] | > 5 |
| Cc1cccn2nc([C@H]3c4nc[nH]c4CCN3C(=O)c3oc(-c4cnn(C)c4)nc3C3CC3)cc12 [Example 2075] | 1 to 5 |
| O=C(C1CCC1)N1CCc2[nH]cnc2[C@@H]1c1cc2c(F)cccn2n1 [Example 2081, (R)-cyclobutyl(4-(4-fluoropyrazolo[1,5-a]pyridin-2-yl)-1,4,6,7-tetrahydro-5H-imidazo[4,5-c]pyridin-5-yl)methanone] | > 5 |
| Fc1ccc(-c2nnc(N3CCc4[nH]cnc4[C@@H]3c3cc4cccc(Cl)n4n3)o2)cc1 [Example 2087, (R)-2-(4-(7-chloropyrazolo [1,5-a]pyridin-2-yl)-1,4,6,7-tetrahydro-5H-imidazo [4,5-c]pyridin-5-yl)-5-(4-fluorophenyl)-1,3,4-oxadiazole] | > 5 |
| Fc1cccc(F)c1-c1nnc(N2CCc3[nH]cnc3[C@@H]2c2cc3cccc(Cl)n3n2)o1 [Example 2088, (R)-2-(4-(7-chloropyrazolo [1,5-a]pyridin-2-yl)-1,4,6,7-tetrahydro-5H-imidazo [4,5-c]pyridin-5-yl)-5-(2,6-difluorophenyl)-1,3,4-oxadiazole] | > 5 |
| Cc1cccc2cc([C@H]3c4nc[nH]c4CCN3c3nnc(-c4c(F)cccc4F)o3)nn12 [Example 2090, (R)-2-(2,6-difluorophenyl)-5-(4-(7-methylpyrazolo[1,5-a]pyridin-2-yl)-1,4,6,7-tetrahydro-5H-imidazo[4,5-c]pyridin-5-yl)-1,3,4-oxadiazole] | > 5 |
| Cc1cccc2cc([C@@H]3c4nc[nH]c4CCN3c3ccc(C(F)(F)F)cn3)nn12 [Example 2097, (S)-4-(7-methylpyrazolo [1,5-a]pyridin-2-yl)-5-(5-(trifluoromethyl)pyridin-2-yl)-4,5,6,7-tetrahydro-1H-imidazo[4,5-c]pyridine] | 0.5 to 1 |
| CC(C)(C)c1ncc(C(=O)N2CCc3[nH]cnc3[C@H]2c2cc3c(F)cccn3n2)o1 [Example 2100, (S)-(2-(tert-butyl)oxazol-5-yl)(4-(4-fluoropyrazolo[1,5-a]pyridin-2-yl)-1,4,6,7-tetrahydro-5H-imidazo[4,5-c]pyridin-5-yl)methanone] | < 0.5 |
| Cn1cc(-c2nc(C3CC3)c(C(=O)N3CCc4[nH]cnc4[C@H]3c3cc4c(C(F)F)cccn4n3)o2)cn1 [Example 2114, (S)-(4-cyclopropyl-2-(1-methyl-1H-pyrazol-4-yl)oxazol-5-yl)(4-(4-(difluoromethyl)pyrazolo[1,5-a]pyridin-2-yl)-1,4,6,7-tetrahydro-5H-imidazo[4,5-c]pyridin-5-yl)methanone] | 0.5 to 1 |
| Cn1cc(-c2nc(C3CC3)c(C(=O)N3CCc4[nH]cnc4[C@H]3c3cc4c(C(F)(F)F)cccn4n3)o2)cn1 [Example 2116, (S)-(4-cyclopropyl-2-(1-methyl-1H-pyrazol-4-yl)oxazol-5-yl)(4-(4-(trifluoromethyl)pyrazolo[1,5-a]pyridin-2-yl)-1,4,6,7-tetrahydro-5H-imidazo[4,5-c]pyridin-5-yl)methanone] | < 0.5 |
| Cn1cc(-c2nc(C3CC3)c(C(=O)N3CCc4[nH]cnc4[C@@H]3c3cc4c(C(F)(F)F)cccn4n3)o2)cn1 [Example 2117, (R)-(4-cyclopropyl-2-(1-methyl-1H-pyrazol-4-yl)oxazol-5-yl)(4-(4-(trifluoromethyl)pyrazolo[1,5-a]pyridin-2-yl)-1,4,6,7-tetrahydro-5H-imidazo[4,5-c]pyridin-5-yl)methanone] | 1 to 5 |
| Cc1cccn2nc([C@H]3c4nc[nH]c4CCN3C(=O)c3oc(-c4ccccn4)nc3C3CC3)cc12 [Example 2121, (R)-(4-cyclopropyl-2-(pyridin-2-yl)oxazol-5-yl)(4-(4-methylpyrazolo[1,5-a]pyridin-2-yl)-1,4,6,7-tetrahydro-5H-imidazo[4,5-c]pyridin-5-yl)methanone] | 1 to 5 |
| O=C(c1oc(-c2ccccn2)nc1C1CC1)N1CCc2[nH]cnc2[C@H]1c1cc2c(C(F)(F)F)cccn2n1 [Example 2124, (S)-(4-cyclopropyl-2-(pyridin-2-yl)oxazol-5-yl)(4-(4-(trifluoromethyl)pyrazolo [1,5-a]pyridin-2-yl)-1,4,6,7-tetrahydro-5H-imidazo[4,5-c]pyridin-5-yl)methanone] | < 0.5 |
| Cc1cccn2nc([C@@H]3c4nc[nH]c4CCN3c3ccccn3)cc12 [Example 2127, (S)-4-(4-methylpyrazolo [1,5-a]pyridin-2-yl)-5-(pyridin-2-yl)-4,5,6,7-tetrahydro-1H-imidazo[4,5-c]pyridine] | < 0.5 |
| FC(F)(F)c1ccc(N2CCc3[nH]cnc3[C@H]2c2cc3cccc(Cl)n3n2)nc1 [Example 2136, (S)-4-(7-chloropyrazolo [1,5-a]pyridin-2-yl)-5-(5-(trifluoromethyl)pyridin-2-yl)-4,5,6,7-tetrahydro-1H-imidazo[4,5-c]pyridine] | < 0.5 |
| CC(C)c1cccn2nc([C@@H]3c4nc[nH]c4CCN3c3nnc(C(F)(F)F)o3)cc12 [Example 2147, (S)-2-(4-(4-isopropylpyrazolo [1,5-a]pyridin-2-yl)-1,4,6,7-tetrahydro-5H-imidazo [4,5-c]pyridin-5-yl)-5-(trifluoromethyl)-1,3,4-oxadiazole] | < 0.5 |
| CC(C)c1cccn2nc([C@@H]3c4nc[nH]c4CCN3c3ccc(C(F)(F)F)cn3)cc12 [Example 2148, (S)-4-(4-isopropylpyrazolo [1,5-a]pyridin-2-yl)-5-(5-(trifluoromethyl)pyridin-2-yl)-4,5,6,7-tetrahydro-1H-imidazo[4,5-c]pyridine] | < 0.5 |
| FC(F)Oc1cccn2nc([C@H]3c4nc[nH]c4CCN3c3nnc(C(F)(F)F)o3)cc12 [Example 2154, (R)-2-(4-(4-(difluoromethoxy)pyrazolo[1,5-a]pyridin-2-yl)-1,4,6,7-tetrahydro-5H-imidazo[4,5-c]pyridin-5-yl)-5-(trifluoromethyl)-1,3,4-oxadiazole] | > 5 |
| FC(F)Oc1cccn2nc([C@@H]3c4nc[nH]c4CCN3c3nnc(C(F)(F)F)o3)cc12 [Example 2155, (S)-2-(4-(4-(difluoromethoxy)pyrazolo[1,5-a]pyridin-2-yl)-1,4,6,7-tetrahydro-5H-imidazo[4,5-c]pyridin-5-yl)-5-(trifluoromethyl)-1,3,4-oxadiazole] | < 0.5 |
| Fc1cccn2nc([C@@H]3c4nc[nH]c4CCN3c3nnc(-c4cnccn4)o3)cc12 [Example 2159, (S)-2-(4-(4-fluoropyrazolo [1,5-a]pyridin-2-yl)-1,4,6,7-tetrahydro-5H-imidazo[4,5-c]pyridin-5-yl)-5-(pyrazin-2-yl)-1,3,4-oxadiazole] | 0.5 to 1 |
| Clc1cccn2nc([C@H]3c4nc[nH]c4CCN3c3nnc(-c4cnccn4)o3)cc12 [Example 2160, (R)-2-(4-(4-chloropyrazolo [1,5-a]pyridin-2-yl)-1,4,6,7-tetrahydro-5H-imidazo[4,5-c]pyridin-5-yl)-5-(pyrazin-2-yl)-1,3,4-oxadiazole] | > 5 |
| Clc1cccn2nc([C@@H]3c4nc[nH]c4CCN3c3nnc(-c4cnccn4)o3)cc12 [Example 2161, (S)-2-(4-(4-chloropyrazolo [1,5-a]pyridin-2-yl)-1,4,6,7-tetrahydro-5H-imidazo[4,5-c]pyridin-5-yl)-5-(pyrazin-2-yl)-1,3,4-oxadiazole] | < 0.5 |
| FC(F)c1nnc(N2CCc3[nH]cnc3[C@H]2c2cc3c(C4CC4)cccn3n2)o1 [Example 2167] | < 0.5 |
| CC(C)c1cccn2nc([C@H]3c4nc[nH]c4CCN3c3nnc(-c4cnccn4)o3)cc12 [Example 2176, (R)-2-(4-(4-isopropylpyrazolo [1,5-a]pyridin-2-yl)-1,4,6,7-tetrahydro-5H-imidazo [4,5-c]pyridin-5-yl)-5-(pyrazin-2-yl)-1,3,4-oxadiazole] | > 5 |
| CC(C)c1cccn2nc([C@@H]3c4nc[nH]c4CCN3c3nnc(-c4cnccn4)o3)cc12 [Example 2177, (S)-2-(4-(4-isopropylpyrazolo [1,5-a]pyridin-2-yl)-1,4,6,7-tetrahydro-5H-imidazo [4,5-c]pyridin-5-yl)-5-(pyrazin-2-yl)-1,3,4-oxadiazole] | 0.5 to 1 |
| Fc1cccn2nc([C@@H]3c4nc[nH]c4CCN3c3nnc(-c4ccncn4)o3)cc12 [Example 2178, (S)-2-(4-(4-fluoropyrazolo [1,5-a]pyridin-2-yl)-1,4,6,7-tetrahydro-5H-imidazo[4,5-c]pyridin-5-yl)-5-(pyrimidin-4-yl)-1,3,4-oxadiazole] | 0.5 to 1 |
